Results from PubChem BioAssay AID292 (DTP/NCI, 2004).
Several values for one entry are separate records, joined by “and”; a condition that tells them apart may be missing. Equal entries are not always repeated. Inconclusive results and toxic doses are left out.

Test system: B6C3F1 mice, ip Sarcoma M5076, median survival T/C
Experiment: NCI In Vivo Anticancer Drug Screen. Data for tumor model Sarcoma M5076 (intraperitoneal) in B6C3F1 mice
Details: endpoint: median survival time, higher = longer survival
How it was run: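 Tumour cells were transplanted into mice, compound or vehicle was given, survival of both groups was followed, and the treated figure was expressed over the control figure.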

[1] = dose: 25.0 mg/kg/injection, schedule: Q04DX004 (ip), vehicle: Klucel (hydroxypropylcellulose) (HPC)
[2] = dose: 50.0 mg/kg/injection, schedule: Q04DX004 (ip), vehicle: Klucel (hydroxypropylcellulose) (HPC)
[3] = dose: 100.0 mg/kg/injection, schedule: Q04DX004 (ip), vehicle: Klucel (hydroxypropylcellulose) (HPC)
[4] = dose: 200.0 mg/kg/injection, schedule: Q04DX004 (ip), vehicle: Klucel (hydroxypropylcellulose) (HPC)
[5] = dose: 400.0 mg/kg/injection, schedule: Q04DX004 (ip), vehicle: Klucel (hydroxypropylcellulose) (HPC)
[6] = dose: 50.0 mg/kg/injection, schedule: Q04DX004 (ip), vehicle: saline with Tween-80
[7] = dose: 5.0 mg/kg/injection, schedule: Q04DX004 (ip), vehicle: saline
[8] = dose: 10.0 mg/kg/injection, schedule: Q04DX004 (ip), vehicle: saline

With `CC1C(C#N)C(=O)NC(=O)C1C#N` (stereo unspecified) the T/C (dose: 50.0 mg/kg/injection, schedule: Q04DX004 (ip), vehicle: saline) was 100 % of control, the T/C (dose: 100.0 mg/kg/injection, schedule: Q04DX004 (ip), vehicle: saline) was 104 % of control and the T/C (dose: 200.0 mg/kg/injection, schedule: Q04DX004 (ip), vehicle: saline) was 97 % of control. The T/C (dose: 400.0 mg/kg/injection, schedule: Q04DX004 (ip), vehicle: saline) was 97 % of control and the T/C (dose: 800.0 mg/kg/injection, schedule: Q04DX004 (ip), vehicle: saline) was 102 % of control.

For `COC1C(CO)OC(n2c3c(Cl)cccc3c3c4c(c5c6cccc(Cl)c6[nH]c5c32)C(=O)NC4=O)C(O)C1O` (stereo unspecified), the T/C (dose: 46.75 mg/kg/injection, schedule: Q04DX004 (ip), vehicle: distilled water + Tween-80) was 113 % of control, the T/C (dose: 50.0 mg/kg/injection, schedule: Q04DX004 (ip), vehicle: distilled water + Tween-80) was 116 % of control and the T/C (dose: 93.5 mg/kg/injection, schedule: Q04DX004 (ip), vehicle: distilled water + Tween-80) was 118 % of control. The T/C (dose: 100.0 mg/kg/injection, schedule: Q04DX004 (ip), vehicle: distilled water + Tween-80) was 117 % of control and 118 % of control, the T/C (dose: 200.0 mg/kg/injection, schedule: Q04DX004 (ip), vehicle: distilled water + Tween-80) was 118 % of control and the T/C (dose: 374.0 mg/kg/injection, schedule: Q04DX004 (ip), vehicle: distilled water + Tween-80) was 108 % of control. The T/C (dose: 748.0 mg/kg/injection, schedule: Q04DX004 (ip), vehicle: distilled water + Tween-80) was 115 % of control and the T/C (dose: 800.0 mg/kg/injection, schedule: Q04DX004 (ip), vehicle: distilled water + Tween-80) was 117 % of control.

`NC(C(=O)O)/C1=C/CCCCCC1` (stereo unspecified) was tested, and the T/C [1] was 100 % of control, the T/C [2] was 98 % of control and the T/C [3] was 100 % of control. The T/C [4] was 111 % of control and the T/C [5] was 103 % of control.

In the case of `CC(=O)NCCSSCCCCS(=O)O`, the T/C (dose: 37.5 mg/kg/injection, schedule: Q04DX004 (ip), vehicle: saline) is reported as 99 % of control, the T/C (dose: 75.0 mg/kg/injection, schedule: Q04DX004 (ip), vehicle: saline) is reported as 98 % of control and the T/C (dose: 150.0 mg/kg/injection, schedule: Q04DX004 (ip), vehicle: saline) is reported as 100 % of control. For the same molecule, the T/C (dose: 300.0 mg/kg/injection, schedule: Q04DX004 (ip), vehicle: saline) was 97 % of control and the T/C (dose: 600.0 mg/kg/injection, schedule: Q04DX004 (ip), vehicle: saline) was 104 % of control.

For `COc1ccccc1NC(=O)C1C(=O)C(=O)N(c2ccccc2OC)C1=O` (stereo unspecified), the T/C [2] was 105 % of control, the T/C [3] was 97 % of control and the T/C [4] was 96 % of control.

In the case of `COc1cccc(C2C(C#N)C(=O)NC(=O)C2C#N)c1` (stereo unspecified), the T/C [2] is reported as 99 % of control, the T/C [3] is reported as 102 % of control and the T/C [4] is reported as 98 % of control. The T/C [5] was 95 % of control.

For `COc1cc(C2CC(C)(O)Oc3cc4c(cc32)OCO4)cc(OC)c1OC` (stereo unspecified), the T/C [6] was 115 % of control.

For `O=C(Nc1ccccc1[N+](=O)[O-])C1C(=O)C(=O)N(c2ccccc2[N+](=O)[O-])C1=O` (stereo unspecified), the T/C [2] was 101 % of control, the T/C [3] was 89 % of control and the T/C [4] was 92 % of control.

With `CC(=O)OCc1cc(=O)n(C)c2c3c4c(cc12)c(C)cc(=O)n4CO3` the T/C (dose: 10.0 mg/kg/injection, schedule: Q04DX004 (ip), vehicle: Klucel (hydroxypropylcellulose) (HPC)) was 103 % of control, the T/C (dose: 20.0 mg/kg/injection, schedule: Q04DX004 (ip), vehicle: Klucel (hydroxypropylcellulose) (HPC)) was 112 % of control and the T/C (dose: 40.0 mg/kg/injection, schedule: Q04DX004 (ip), vehicle: Klucel (hydroxypropylcellulose) (HPC)) was 104 % of control. For the same molecule, the T/C (dose: 80.0 mg/kg/injection, schedule: Q04DX004 (ip), vehicle: Klucel (hydroxypropylcellulose) (HPC)) was 111 % of control.

In the case of `N[C@@H](Cc1c[nH]c2ccccc12)C(=O)Nc1nncs1`, the T/C (dose: 16.67 mg/kg/injection, schedule: Q03HX012 (ip), vehicle: saline) is reported as 102 % of control, the T/C (dose: 33.34 mg/kg/injection, schedule: Q03HX012 (ip), vehicle: saline) is reported as 101 % of control and the T/C (dose: 66.67 mg/kg/injection, schedule: Q03HX012 (ip), vehicle: saline) is reported as 109 % of control. For the same molecule, the T/C (dose: 100.0 mg/kg/injection, schedule: Q04DX004 (ip), vehicle: suspension in saline) was 95 % of control, the T/C (dose: 133.34 mg/kg/injection, schedule: Q03HX012 (ip), vehicle: saline) was 120 % of control and the T/C (dose: 200.0 mg/kg/injection, schedule: Q04DX004 (ip), vehicle: suspension in saline) was 111 % of control. For the same molecule, the T/C (dose: 266.67 mg/kg/injection, schedule: Q03HX012 (ip), vehicle: saline) was 120 % of control, the T/C (dose: 400.0 mg/kg/injection, schedule: Q04DX004 (ip), vehicle: suspension in saline) was 101 % of control and the T/C (dose: 800.0 mg/kg/injection, schedule: Q04DX004 (ip), vehicle: suspension in saline) was 118 % of control.

In the case of `COc1cc(NCc2ccc3nc(N)nc(N)c3c2C)cc(OC)c1OC`, the T/C (dose: 7.5 mg/kg/injection, schedule: Q04DX004 (ip), vehicle: Klucel (hydroxypropylcellulose) (HPC)) is reported as 117 % of control and 122 % of control, the T/C (dose: 30.0 mg/kg/injection, schedule: Q04DX004 (ip), vehicle: Klucel (hydroxypropylcellulose) (HPC)) is reported as 152 % of control and 154 % of control and the T/C (dose: 60.0 mg/kg/injection, schedule: Q04DX004 (ip), vehicle: Klucel (hydroxypropylcellulose) (HPC)) is reported as 162 % of control and 172 % of control and 179 % of control. For the same molecule, the T/C (dose: 120.0 mg/kg/injection, schedule: Q04DX004 (ip), vehicle: Klucel (hydroxypropylcellulose) (HPC)) was 167 % of control.

In the case of `[N-]=[N+]=CC(=O)CCC(NC(=O)OCc1ccccc1)C(=O)OCc1ccccc1` (stereo unspecified), the T/C [1] is reported as 113 % of control, the T/C [2] is reported as 115 % of control and the T/C [3] is reported as 121 % of control. For the same molecule, the T/C [4] was 121 % of control.

In the case of `Cn1c([N+](=O)[O-])cnc1CSc1ccc(C#N)cc1`, the T/C [2] is reported as 96 % of control, the T/C [3] is reported as 93 % of control and the T/C [4] is reported as 102 % of control. For the same molecule, the T/C [5] was 94 % of control and the T/C (dose: 800.0 mg/kg/injection, schedule: Q04DX004 (ip), vehicle: Klucel (hydroxypropylcellulose) (HPC)) was 91 % of control.

`O=c1[nH]c2cc3c(cc2n2cccc12)oc1ccccc13` was tested, and the T/C [6] was 90 % of control, the T/C (dose: 100.0 mg/kg/injection, schedule: Q04DX004 (ip), vehicle: saline with Tween-80) was 98 % of control and the T/C (dose: 400.0 mg/kg/injection, schedule: Q04DX004 (ip), vehicle: saline with Tween-80) was 90 % of control.

With `O=c1ncccn1[C@@H]1O[C@H](CO)[C@H](O)C1O` (stereo partly specified) the T/C (dose: 25.0 mg/kg/injection, schedule: Q01DX009 (ip), vehicle: saline) was 99 % of control, the T/C (dose: 50.0 mg/kg/injection, schedule: Q01DX009 (ip), vehicle: saline) was 103 % of control and the T/C (dose: 100.0 mg/kg/injection, schedule: Q01DX009 (ip), vehicle: saline) was 104 % of control. For the same molecule, the T/C (dose: 125.0 mg/kg/injection, schedule: Q04DX004 (ip), vehicle: saline) was 92 % of control, the T/C (dose: 200.0 mg/kg/injection, schedule: Q01DX009 (ip), vehicle: saline) was 110 % of control and the T/C (dose: 250.0 mg/kg/injection, schedule: Q04DX004 (ip), vehicle: saline) was 94 % of control. The T/C (dose: 400.0 mg/kg/injection, schedule: Q01DX009 (ip), vehicle: saline) was 97 % of control, the T/C (dose: 500.0 mg/kg/injection, schedule: Q04DX004 (ip), vehicle: saline) was 89 % of control and the T/C (dose: 1000.0 mg/kg/injection, schedule: Q04DX004 (ip), vehicle: saline) was 92 % of control.

With `NC(=S)c1ncn(C2OC(COC=O)C(OC=O)C2OC=O)c1NC=O` (stereo unspecified) the T/C (dose: 86.4 mg/kg/injection, schedule: Q04DX004 (ip), vehicle: Klucel (hydroxypropylcellulose) (HPC)) was 182 % of control, the T/C (dose: 144.0 mg/kg/injection, schedule: Q04DX004 (ip), vehicle: Klucel (hydroxypropylcellulose) (HPC)) was 174 % of control and the T/C (dose: 240.0 mg/kg/injection, schedule: Q04DX004 (ip), vehicle: Klucel (hydroxypropylcellulose) (HPC)) was 184 % of control. The T/C [5] was 168 % of control and 198 % of control and the T/C (dose: 666.67 mg/kg/injection, schedule: Q04DX004 (ip), vehicle: Klucel (hydroxypropylcellulose) (HPC)) was 229 % of control.

For `c1cc2n(n1)CCN2`, the T/C (dose: 50.0 mg/kg/injection, schedule: Q04DX005 (ip), vehicle: saline) was 86 % of control.

With `Cc1c(N)nc([C@H](CC(N)=O)NC[C@H](N)C(N)=O)nc1C(=O)N[C@H](C(=O)N[C@H](C)[C@@H](O)[C@H](C)C(=O)N[C@H](C(=O)NCCc1nc(-c2nc(C(=O)NCCC[S+](C)C)cs2)cs1)[C@@H](C)O)C(OC1OC(CO)C(O)C(O)C1OC1OC(CO)C(O)C(OC(N)=O)C1O)c1cnc[nH]1` (stereo partly specified) the T/C [7] was 94 % of control, the T/C [8] was 94 % of control and the T/C (dose: 20.0 mg/kg/injection, schedule: Q04DX004 (ip), vehicle: saline) was 109 % of control. For the same molecule, the T/C (dose: 40.0 mg/kg/injection, schedule: Q04DX004 (ip), vehicle: saline) was 106 % of control.

`Cc1nc(N)nc(N)c1-c1ccc(Cl)c(Cl)c1` was tested, and the T/C (dose: 1.25 mg/kg/injection, schedule: Q04DX004 (ip), vehicle: saline) was 105 % of control, the T/C (dose: 2.5 mg/kg/injection, schedule: Q04DX004 (ip), vehicle: saline) was 100 % of control and the T/C [7] was 102 % of control. For the same molecule, the T/C [8] was 113 % of control.
